Eleven compounds from ChEMBL document CHEMBL1201862, “PubChem BioAssay data set” (2004) can be followed below.

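Five concentrations, 48 hours, 96-well plates. GI50 is the concentration that inhibits growth by half.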 Active and inactive are the calls of the source. Rule as the data show it: active = GI50 up to about 1.1 µM and inactive = higher.

Holding throughout (assay): NCI anticancer screen, dose series, 48 h
The subject of test [1] is 786-0.
The subject of test [2] is CCRF-CEM.
The test system of test [3] is HCT-116.
Test [4] concerns HT-29.
Test [5] relates to K562.
For test [6], the system named is MOLT-4.
The subject of test [7] is NCI-H226.
The test system of test [8] is NCI-H460.
In test [9] the test system is OVCAR-5.
The subject of test [10] is OVCAR-8.
For test [11], the system named is PC-3.
Test [12] deals with RXF 393.
The test system of test [13] is SF-268.
Test [14] deals with SF-539.
In test [15] the test system is SNB-19.
For test [16], the system named is T47D.
For test [17], the system named is TK-10.
Test [18] has as its system UACC-62.
In test [19] the test system is LOX IMVI.
Test [20] concerns SK-OV-3.

Consider `C=C1[C@H]2O[C@H]2[C@@H](OC(C)=O)[C@@]2(C)[C@@H](OC(C)=O)C[C@@H](OC(=O)CCC)[C@@](C)(O)[C@@H]2[C@@H](OC(C)=O)[C@]2(O)[C@@H](C)C(=O)O[C@H]2[C@H]1Cl`, for which the GI50 in [1] was > 100 µM (inactive); in [2], > 10 µM (inactive); in test [3], > 100 µM (inactive); in test [4], > 100 µM (inactive); in [5], > 100 µM (inactive); in [6], > 100 µM (inactive). Moreover, the GI50 in test [7] is 0.159 µM (active); in test [8] it was > 100 µM (inactive); in test [9] it was > 100 µM (inactive); in test [10], > 100 µM (inactive); in [11] it was > 100 µM (inactive); in test [12], 38.7 µM (inactive). The GI50 was > 100 µM (inactive) in test [13]; > 100 µM (inactive) in test [14]; > 100 µM (inactive) in test [15]; > 100 µM (inactive) in test [16]; 0.959 µM (active) in test [17]; > 100 µM (inactive) in test [18].

With `CN(C)c1ccc(/C=N/CC2CCCN3CCCCC23)cc1` (stereo not drawn), the GI50 in test [1], in [3], in test [19], in test [7], in [8] and in test [9] was > 100 µM (inactive) in each case. Further, the GI50 in test [10] is > 100 µM (inactive); in test [11], > 100 µM (inactive); in test [12], 47.3 µM (inactive); in [13], > 100 µM (inactive); in test [20] it was > 100 µM (inactive); in [15] it was > 100 µM (inactive). Further, the GI50 in [17] and in [18] was > 100 µM (inactive) throughout.

`O=C(O)CCc1ccc2c(c1)C(=O)CC2`: the GI50 in test [1], in [2], in test [3], in test [4], in test [5] and in test [19] was > 100 µM (inactive) each time. Besides, the GI50 in test [6], in [7], in [8], in test [9], in test [10] and in [12] was > 100 µM (inactive) in each case. For the same compound, the GI50 in test [13] is > 100 µM (inactive); in test [14] it was > 100 µM (inactive); in test [20], > 100 µM (inactive); in test [15] it was > 100 µM (inactive); in test [16] it was 93.1 µM (inactive); in test [17], > 100 µM (inactive). In addition, the GI50 in [18] is > 100 µM (inactive).

With `COC(=O)c1ccc(C(=O)NC(Cc2ccc(Oc3cc(CC(NC(=O)c4ccccc4C(=O)OC)C(=O)OC)ccc3OC)cc2)C(=O)OC)cc1` (stereo not drawn), the GI50 in test [1], in test [2], in test [3], in test [4], in test [5] and in [19] was > 100 µM (inactive) throughout. Further, the GI50 in [6] was > 100 µM (inactive); in test [7] it was > 100 µM (inactive); in test [8] it was > 100 µM (inactive); in test [9] it was > 100 µM (inactive); in [10], 86.3 µM (inactive); in test [11] it was > 100 µM (inactive). Besides, the GI50 in test [13] is > 100 µM (inactive); in test [14], 63.5 µM (inactive); in test [20] it was 67 µM (inactive); in test [15], 31.6 µM (inactive); in test [16], > 100 µM (inactive); in test [17] it was > 100 µM (inactive).

For the compound `O=S(=O)(c1ccccc1)c1cccc2c1NCCC2`, the GI50 in test [1] was 78.7 µM (inactive); in test [2], 46.8 µM (inactive); in [3], 42.5 µM (inactive); in [4], 37.8 µM (inactive); in test [5], 35.6 µM (inactive); in test [19] it was 35.6 µM (inactive). In addition, the GI50 was 28.7 µM (inactive) in [6]; 49.9 µM (inactive) in test [7]; 43.4 µM (inactive) in test [8]; > 100 µM (inactive) in test [9]; 58.6 µM (inactive) in [10]; 31.1 µM (inactive) in test [11]. Besides, the GI50 was 27.7 µM (inactive) in test [12]; 72.1 µM (inactive) in test [13]; 45 µM (inactive) in test [14]; > 10 µM (inactive) in test [20]; 39.2 µM (inactive) in test [15]; 64.9 µM (inactive) in test [17]. The GI50 in test [18] is > 10 µM (inactive).

Consider `CS(=O)(=O)NC12CCC(c3ccccc31)c1ccccc12`, for which the GI50 in [1], in test [2], in test [3], in test [4], in [5] and in [19] was > 100 µM (inactive) in each case. In addition, the GI50 in test [6], in test [7], in [8], in test [9], in test [11] and in test [13] was > 100 µM (inactive) throughout. The GI50 in test [14], in test [20], in test [15], in test [16], in test [17] and in test [18] was > 100 µM (inactive) in each case.

As to `Cc1ccc(S(=O)(=O)OC2C3OC(C)(C)OC3OC2C(c2cc(O)c3c(c2O)C(=O)c2ccccc2C3=O)c2cc(O)c3c(c2O)C(=O)c2ccccc2C3=O)cc1` (stereo not drawn), the GI50 in [1], in test [2], in test [3], in test [4], in test [5] and in [19] was > 10 µM (inactive) each time. The GI50 in test [6], in test [7], in test [8], in test [9], in test [10] and in test [11] was > 10 µM (inactive) each time. Also, the GI50 in test [13], in [14], in test [20], in test [15], in test [16] and in [17] was > 10 µM (inactive) throughout. In addition, the GI50 in [18] is > 10 µM (inactive).

On to `COC(=O)C(=O)C(C(=O)C(=O)Nc1cccc([N+](=O)[O-])c1)c1nc2ccc(Cl)cc2nc1O` (stereo not drawn), for which the GI50 in test [1], in test [2], in test [3], in test [4], in test [19] and in [6] was > 100 µM (inactive) in each case. For the same compound, the GI50 in test [7] was 82.6 µM (inactive); in test [8] it was > 100 µM (inactive); in [9], > 100 µM (inactive); in test [10], > 100 µM (inactive); in [11], > 100 µM (inactive); in test [12] it was > 100 µM (inactive). Also, the GI50 was > 100 µM (inactive) in [13]; 45.5 µM (inactive) in test [14]; > 100 µM (inactive) in test [20]; > 100 µM (inactive) in test [15]; > 100 µM (inactive) in test [17]; > 100 µM (inactive) in test [18].

On to `CSc1ccsc1-c1sc(-c2cc(SC)c(-c3sc(-c4cc(SC)c(-c5sccc5SC)s4)cc3SC)s2)cc1SC`, for which the GI50 was 15.3 µM (inactive) in [1]; 4.26 µM (inactive) in test [2]; 75.9 µM (inactive) in test [3]; 93.5 µM (inactive) in test [4]; 46.8 µM (inactive) in test [5]; > 100 µM (inactive) in test [19]. In addition, the GI50 was 18 µM (inactive) in [6]; > 100 µM (inactive) in test [8]; > 100 µM (inactive) in test [9]; > 100 µM (inactive) in test [10]; 76.4 µM (inactive) in [11]; > 100 µM (inactive) in test [12]. In addition, the GI50 in test [13] was > 100 µM (inactive); in test [14], > 100 µM (inactive); in [20], > 100 µM (inactive); in test [15] it was > 100 µM (inactive); in test [16], 28.2 µM (inactive); in [17], > 100 µM (inactive). For the same compound, in test [18], the GI50 was 42.2 µM (inactive).

On to `O=c1[nH]n(CCc2ccccc2CCl)c2ccc([N+](=O)[O-])cc12`, for which the GI50 in test [1] is 93.8 µM (inactive); in test [2] it was 37 µM (inactive); in test [3], 52.1 µM (inactive); in [4], 88.1 µM (inactive); in test [5], 38.9 µM (inactive); in test [19] it was 41.5 µM (inactive). The GI50 is 72.8 µM (inactive) in test [6]; 95.9 µM (inactive) in test [7]; 57 µM (inactive) in test [8]; > 100 µM (inactive) in test [9]; 71.3 µM (inactive) in [10]; 78.3 µM (inactive) in test [11]. Besides, the GI50 in test [12] was 92.3 µM (inactive); in test [13] it was > 100 µM (inactive); in test [14], > 100 µM (inactive); in test [15], > 100 µM (inactive); in [17] it was > 100 µM (inactive); in test [18], 45.8 µM (inactive).

Regarding `CC1=NN(C(=O)CC(=O)Nc2ccccc2Cl)C(=O)C1/N=N/c1ccc(C(=O)O)cc1` (stereo not drawn), the GI50 in [1] was > 100 µM (inactive); in [2] it was > 100 µM (inactive); in [3], > 100 µM (inactive); in test [4] it was 7.73 µM (inactive); in test [5] it was > 100 µM (inactive); in test [19] it was 65.6 µM (inactive). For the same compound, the GI50 in test [6], in [8], in [9], in [10], in test [11] and in test [12] was > 100 µM (inactive) each time. The GI50 in test [13] is > 100 µM (inactive); in test [14], > 100 µM (inactive); in test [15], > 100 µM (inactive); in test [16], 53.2 µM (inactive); in test [17], > 100 µM (inactive); in test [18] it was > 100 µM (inactive).
